# Test results as given in article PMC8632988, “Inhibition of SYK and cSrc kinases can protect bone and cartilage in preclinical models of osteoarthritis and rheumatoid arthritis” (Scientific Reports, 2021).
# How the values were obtained:
# mongrel rats, AIA model = assay: Adjuvant-induced arthritis in rats; assay type: in vivo; conditions: for Animal death / The increase in the volume of the paws relative to the initial level: Diclofenac 8 mg/kg QD intragastric
# Description: Rat adjuvant-induced arthritis (AIA) model was performed at Pharmenterprises, Russia as described previously^3 and approved by Ethics Committee of Pharmenterprises. Male 10 week old mongrel rats were divided into eleven groups: negative control (#1), positive control (#2) and nine treatment groups (#3–11), ten […] in each group. Group #1 was left intact, while subplantar injection of 0.1 mL of Complete Freund’s adjuvant (CFA, Sigma) was made on day 0 at right paws of rats in groups […]. […] Disease progression was monitored by measuring volumes of the right (involved) and left (non-involved) paws on days 0, 14, 18, 21, 25, and 28.
# [1] = test system: Wistar rats, MIA osteoarthritis model; assay: Monosodium iodoacetate induced osteoarthritis in rats; assay type: in vivo, rat
# Description: Monosodium iodoacetate (MIA) osteoarthritis model was performed at Pharmenterprises, Russia according to the known procedure[32] and approved by Ethics Committee of Pharmenterprises. Male 10 week old Wistar rats were divided into eight groups: negative control (#1), positive control (#2) and six treatment groups (#3–8), ten rats in each group. Group #1 was left intact while rats in groups #2–8 were anesthetized on the day 0 with intraperitoneal injection of Zoletil and Xylazine mixture and given a single intra-articular injection of MIA through the infrapatellar ligament of the right knee. Rats were treated as follows: (#1, #2) 0.5% solution of methylcellulose in PBS (pH = 3) as vehicle control, (#3, #5) 100 mg/kg MT-SYK-03, (#4, #6) 500 mg/kg MT-SYK-03, (#7) 50 mg/kg nalgesin and (#8) 0.1 mg/kg zoledronic acid. Rats in groups #1–4 received treatment intragastrically QD, 25 and 1 h before the MIA injection, and then daily until the end of the study on the day 28. Rats in groups #5–6 received treatment intragastrically QD from the day 7 until the end of the study. Rats in group #7 were treated QD starting on the day 14 and until the end of the study. Finally, rats in group #8 were treated subcutaneously immediately after the MIA injection and then every third day until the study end. Disease progression was monitored by measuring mechanical hyperalgesia, mechanical allodynia and grip strength of hind paws on the days 14, 21, and 28, just before the treatment, and 1, 3, 6 h after it.
# [2] = test system: Sprague-Dowley rats, medial meniscal tear (MMT) model; assay: Surgically induced meniscal tear OA in rats; assay type: in vivo, rat; conditions: 0.1 mg/kg subcutaneously once every three days, day 21
# Description: Medial meniscal tear (MMT) model was performed at Pharmenterprises, Russia according to the published procedure[31] and approved by Ethics Committee of Pharmenterprises. Male 4-month old Sprague-Dowley rats were anesthetized with Zoletil (Vibrac, France) and Xylazine (Interchemie werken "De Adelaar" BV, Netherlands) mixture. The medial collateral ligament was transected, and the medial meniscus was grasped with a hemostat and reflected proximally toward the femur. The meniscus was transected and then skin was closed with sutures. 60–90 min after surgery rats were subcutaneously injected with flexoprofen (VIC GROUP, Russia). Treatment groups (20 rats each) were intragastrically treated with MT-SYK-03 (100 and 500 mg/kg) or vehicle control (0.5% methylcellulose solution) 24 h before OA induction and then once daily for 21 day. Active control group was subcutaneously injected with zoledronic acid (0.1 mg/kg) 24 h before OA induction and then once every three days for 21 day. After 21 day animals were sacrificed; surgically operated right knee was removed and used for image analysis.
# [3] = Zoledronic acid 0.1 mg/kg, 0–28 days once three days, 14 day, 1 hour after admin.
# [4] = Zoledronic acid 0.1 mg/kg, 0–28 days once three days, 14 day, 3 hours after admin.
# [5] = Zoledronic acid 0.1 mg/kg, 0–28 days once three days, 21 day, 1 hour after admin.
# [6] = Zoledronic acid 0.1 mg/kg, 0–28 days once three days, 21 day, 3 hours after admin.
# [7] = Zoledronic acid 0.1 mg/kg, 0–28 days once three days, 28 day, 1 hour after admin.
# [8] = Zoledronic acid 0.1 mg/kg, 0–28 days once three days, 28 day, 3 hours after admin.
structure (smiles),measurement,setting,value
"O=C(O)Cc1ccccc1Nc1c(Cl)cccc1Cl [diclofenac, reference compound]",Animal death,"mongrel rats, AIA model; 14 days",0%
same,Animal death,"mongrel rats, AIA model; 18 days",0%
same,Animal death,"mongrel rats, AIA model; 21 days",10%
same,Animal death,"mongrel rats, AIA model; 25 days",20%
same,Animal death,"mongrel rats, AIA model; 28 days",20%
same,The increase in the volume of the paws relative to the initial level,"mongrel rats, AIA model; non-involved paws, 14 days",14.28±0.98& %
same,The increase in the volume of the paws relative to the initial level,"mongrel rats, AIA model; non-involved paws, 18 days",22.01±2.42& %
same,The increase in the volume of the paws relative to the initial level,"mongrel rats, AIA model; non-involved paws, 21 days",22.85±2.82& %
same,The increase in the volume of the paws relative to the initial level,"mongrel rats, AIA model; non-involved paws, 25 days",19.99±2.76& %
same,The increase in the volume of the paws relative to the initial level,"mongrel rats, AIA model; non-involved paws, 28 days",20.8±3.06& %
same,Volume of non-involved paws,"mongrel rats, AIA model; rat AIA, diclofenac, day 28",no statistically significant effect
same,Rats died,"mongrel rats, AIA model; rat AIA, sodium diclofenac",20%
same,The increase in the volume of the paws relative to the initial level,"mongrel rats, AIA model; treated paws, 14 days",85.1 ± 8.01 & n = 10%
same,The increase in the volume of the paws relative to the initial level,"mongrel rats, AIA model; treated paws, 18 days",90.16 ± 9.34 & n = 10%
same,The increase in the volume of the paws relative to the initial level,"mongrel rats, AIA model; treated paws, 21 days",89.64 ± 9.99 & n = 9%
same,The increase in the volume of the paws relative to the initial level,"mongrel rats, AIA model; treated paws, 25 days",88.04 ± 12.52 &. n = 8%
same,The increase in the volume of the paws relative to the initial level,"mongrel rats, AIA model; treated paws, 28 days",92.37 ± 13.78 & n=8%
"O=P(O)(O)C(O)(Cn1ccnc1)P(=O)(O)O [zoledronic acid, reference compound]",hind paws grip strength,[1]; [3],60.4 ± 10.4 & % from the initial one
same,mechanical allodynia pain threshold,[1]; [3],100.6±8 & % from the initial one
same,mechanical hyperalgesia,[1]; [3],68.1 ± 6.3 & % from the initial one
same,hind paws grip strength,[1]; [4],75.4 ± 7.7 & % from the initial one
same,mechanical allodynia pain threshold,[1]; [4],101.3±12.3 & % from the initial one
same,mechanical hyperalgesia,[1]; [4],68.3 ± 3.5 & % from the initial one
same,hind paws grip strength,[1]; [5],96 ± 6.8 % from the initial one
same,mechanical allodynia pain threshold,[1]; [5],108.2±7.9 & % from the initial one
same,mechanical hyperalgesia,[1]; [5],85.6 ± 5.6 % from the initial one
same,hind paws grip strength,[1]; [6],84.3 ± 7.5 % from the initial one
same,mechanical allodynia pain threshold,[1]; [6],106.8±6.5 & % from the initial one
same,mechanical hyperalgesia,[1]; [6],83.4 ± 5.2 % from the initial one
same,hind paws grip strength,[1]; [7],92.8 ± 7.6 % from the initial one
same,mechanical allodynia pain threshold,[1]; [7],112.4±8.6 & % from the initial one
same,mechanical hyperalgesia,[1]; [7],81.8 ± 3.7 & % from the initial one
same,hind paws grip strength,[1]; [8],93.9 ± 15.5 % from the initial one
same,mechanical allodynia pain threshold,[1]; [8],126.6±15.4 & % from the initial one
same,mechanical hyperalgesia,[1]; [8],84.2 ± 7.4 % from the initial one
same,hind paws grip strength,"[1]; rat MIA, days 14, 21, 28","stable statistically significant improvements, but only on day 28"
same,Mechanical hyperalgesia pain threshold,"[1]; rat MIA, reference drugs","positive effects, but they were statistically significant only on days 21 and 28"
same,mechanical allodynia pain threshold,"[1]; rat MIA, reference drugs",increased the pain threshold
same,Lesion area,[2],25.3 ± 2.2^& %
same,Lesion depth,[2],50.5 ± 7.1%
